From patent publication US4308181A, “Polypeptide compositions” (American Home Products Corporation, priority 1980, dated 1981)
Residues, ends and D or L forms follow the SMILES beside them.

System: T lymphocytes isolated from spleens of male CBA/J or NZB mice
Assay: T lymphocyte proliferation, 3H-thymidine uptake
Assay type: cell-based
Details: 48 h culture
Method: The activity of the compounds of the Examples is determined according to the following procedure:
T lymphocytes are isolated from spleens of male CBA/J or NZB mice. Cell homogenates are prepared in Hank's balanced salt solution (HBSS). After removal of larger particles and repeated washing of the cells in HBSS they are suspended in minimum essential medium (MEM) and passed through a glass wool column to remove macrophages. The cells are then incubated on a nylon wool column at 37° C., 95% air, 5% CO2, for 45 minutes. The non-adherant T lymphocytes are then eluted from the column, counted, and adjusted to 20×10^6 cells/ml. 50 μl. of cells are cultured (37° C., 95% air, 5% CO2) with compound, for 48 hours before addition of 0.5 μCi. of 3H-thymidine for the last 16 hours of culture. The total volume of the culture system is 200 μ l. The cells are then harvested on a multiple automatic sample harvester (MashII), the glass fiber filter disks placed in 10 ml. of xylene base scintillation fluid, and counted for 1 minute in a liquid scintillation counter. Results are reported as CPM+SE. Comparisons are made between counts obtained with control cultures and cultures containing compound and a determination made as to whether the compounds are active at the dosage tested.

[1] = 0.75 ng/culture, run with control 19,275 ± 1298
[2] = 1.5 ng/culture, run with control 9,876 ± 951
[3] = 1.5 ng/culture, run with control 19,275 ± 1298
[4] = 6.0 ng/culture, run with control 9,876 ± 951
[5] = 6.0 ng/culture, run with control 19,275 ± 1298
[6] = 25 ng/culture, run with control 9,876 ± 951
[7] = 100 ng/culture, run with control 9,876 ± 951

CC(=O)N[C@@H](CO)C(=O)N[C@@H](Cc1c[nH]cn1)C(=O)N[C@@H](CC(C)C)C(=O)N[C@H](C(N)=O)C(C)C.CC(=O)O [Ac--Ser--His--Leu--Val--NH2, N-acetylseryl-L-histidyl-L-leucyl-L-valinamide, acetate] (Ac-SHLV-NH2)
H-Thymidine Uptake CPM + S.E. [1]: 26,137 ± 6158 CPM
H-Thymidine Uptake CPM + S.E. [2]: 30,925 ± 3256 CPM
H-Thymidine Uptake CPM + S.E. [3]: 32,646 ± 2284 CPM
H-Thymidine Uptake CPM + S.E. [4]: 26,741 ± 3049 CPM
H-Thymidine Uptake CPM + S.E. [5]: 30,425 ± 8896 CPM
H-Thymidine Uptake CPM + S.E. [6]: 28,206 ± 2233 CPM
H-Thymidine Uptake CPM + S.E. (25 ng/culture, run with control 19,275 ± 1298): 32,278 ± 5373 CPM
H-Thymidine Uptake CPM + S.E. [7]: 20,758 ± 3027 CPM

CC(=O)NCC(=O)N[C@@H](CO)C(=O)N[C@@H](Cc1c[nH]cn1)C(=O)N[C@@H](CC(C)C)C(N)=O [Ac--Gly--Ser--His--Leu--NH2, N-acetylglycyl-L-seryl-L-histidyl-L-leucinaminde, acetate] (Ac-GSHL-NH2)
H-Thymidine Uptake CPM + S.E. [1]: 41,019 ± 6047 CPM
H-Thymidine Uptake CPM + S.E. [2]: 15,028 ± 1178 CPM
H-Thymidine Uptake CPM + S.E. [3]: 48,033 ± 5499 CPM
H-Thymidine Uptake CPM + S.E. [4]: 19,423 ± 1031 CPM
H-Thymidine Uptake CPM + S.E. [5]: 38,254 ± 7188 CPM
H-Thymidine Uptake CPM + S.E. [6]: 19,433 ± 3092 CPM
H-Thymidine Uptake CPM + S.E. [7]: 20,409 ± 4081 CPM
